Measurements reported in patent US12709622B2, “Conjugates for selective responsiveness to vicinal diols” (PROTOMER TECHNOLOGIES, INC., priority 2020, dated 2026).

Assays:
Conditions in all cases: for Kd: ARS displacement, 0.1M phosphate buffer, pH 7.4, 25° C.
[1] = Alizarin Red S (ARS) displacement assay, binding to lactate
Protocol: (§1) The association constant for the binding event between Alizarin Red S (ARS) and the compounds of each of examples 1-24 was determined using standard methods in the art. Triplicate titrations of 10^-5 M ARS in 0.1M phosphate buffer, pH 7.4, were performed in a 96-well plate against serial dilutions of example compounds, ranging in concentration from 0-0.1M at 25° C. The example compound-ARS solution was incubated for 5-45 minutes at 25° C., and absorbance intensity was measured using excitation wavelength 468 nm and emission wavelength 585 nm. Changes in intensity were plotted against the concentration of the example compound, and the intensity data was fitted to yield an association constant for ARS binding.
(§2) The association constant for the binding between a target sugar compound (e.g., glucose) and a boronate compound was determined via the displacement of ARS bound to the example compounds. Triplicate wells of 10^-5 M ARS and 0.1M example compounds in 0.1M phosphate buffer, pH 7.4, were titrated in a 96-well plate against serial dilutions of the target sugar compound, ranging in concentration from 0-2.0 M at 25° C. The boronate-ARS-carbohydrate solution was incubated for 30-60 minutes at 25° C. and the intensity of each well was measured in a plate reader at excitation wavelength 468 nm and emission wavelength 585 nm. Changes in intensity were plotted against concentration of the target sugar compound, and the data was fitted to a one-site competition equation:
(§3) [formula] to yield an association constant for the boronate compound-target sugar compound binding event.

[2] = Alizarin Red S (ARS) displacement assay, binding to glucose
Protocol: as §1, §2, §3

[3] = Alizarin Red S (ARS) displacement assay, binding to fructose
Protocol: as §1, §2, §3

[4] = Example 7 (heterobifunctional, boroxole) compared to Example 5

SMILES	Kd [1] [mM]	Kd [2] [mM]	Kd [3] [mM]	increase in affinity to lactate [1, 4] [fold]	increase in affinity to glucose [2, 4] [fold]	increase in affinity to fructose [3, 4] [fold]
CS(=O)(=O)c1ccc(B(O)O)cc1C(=O)N[C@@H]1C[C@H](C(N)=O)N(C(=O)c2cc(B(O)O)ccc2S(C)(=O)=O)C1 [Example 1, (3-((2R,4R)-4-(5-borono-2-(methylsulfonyl)benzamido)-2-carbamoylpyrrolidine-1-carbonyl)-4-(methylsulfonyl)phenyl)boronic acid]	38.3	25.2	1.7	–	–	–
O=C(O)CNC(=O)[C@@H]1C[C@H](NC(=O)c2ccc3c(c2)B(O)OC3)CN1C(=O)c1ccc2c(c1)B(O)OC2 [Example 2, ((2S,4S)-1-(1-hydroxy-1,3-dihydrobenzo[c][1,2]oxaborole-6-carbonyl)-4-(1-hydroxy-1,3-dihydrobenzo[c][1,2]oxaborole-6-carboxamido)pyrrolidine-2-carbonyl)glycine]	58	3.7	2	–	–	–
O=C(O)CNC(=O)[C@@H]1C[C@H](NC(=O)c2ccc3c(c2)B(O)OC3)CN1C(=O)c1cc(B(O)O)ccc1[N+](=O)[O-] [Example 3, ((2S,4S)-1-(5-borono-2-nitrobenzoyl)-4-(1-hydroxy-1,3-dihydrobenzo[c][1,2]oxaborole-6-carboxamido)pyrrolidine-2-carbonyl)glycine]	48	14	1.9	–	–	–
NC(=O)[C@H](CNC(=O)c1ccc2c(c1)B(O)OC2)NC(=O)c1cc(B(O)O)cc([N+](=O)[O-])c1 [Example 4, (S)-(3-((1-amino-3-(1-hydroxy-1,3-dihydrobenzo[c][1,2]oxaborole-6-carboxamido)-1-oxopropan-2-yl)carbamoyl)-5-nitrophenyl)boronic acid]	–	13	5.6	–	–	–
NC(=O)[C@H](CNC(=O)c1cc(B(O)O)ccc1[N+](=O)[O-])NC(=O)c1cc(B(O)O)ccc1[N+](=O)[O-] [Example 5, (S)-(3-((1-amino-3-(5-borono-2-nitrobenzamido)-1-oxopropan-2-yl)carbamoyl)-4-nitrophenyl)boronic acid]	–	29.4	11	–	–	–
NC(=O)[C@H](CNC(=O)c1cc2c(c(C(F)(F)F)c1)COB2O)NC(=O)c1cc(B(O)O)cc([N+](=O)[O-])c1 [Example 6, (S)-(3-((1-amino-3-(1-hydroxy-4-(trifluoromethyl)-1,3-dihydrobenzo[c][1,2]oxaborole-6-carboxamido)-1-oxopropan-2-yl)carbamoyl)-5-nitrophenyl)boronic acid]	74.1	3.4	4.6	–	–	–
NC(=O)[C@H](CNC(=O)c1ccc2c(c1)B(O)OC2)NC(=O)c1cc(B(O)O)ccc1[N+](=O)[O-] [Example 7, (S)-(3-((1-amino-3-(J-hydroxy-1,3-dihydrobenzo[c][1,2]oxaborole-6-carboxamido)-1-oxopropan-2-yl)carbamoyl)-4-nitrophenyl)boronic acid]	39.5	4.4	1.2	~7	~7	~7
NC(=O)[C@H](CNC(=O)c1sccc1B(O)O)NC(=O)c1sccc1B(O)O [Example 8, (S)-(2-((1-amino-3-(3-boronothiophene-2-carboxamido)-1-oxopropan-2-yl)carbamoyl)thiophen-3-yl)boronic acid]	–	32	2.2	–	–	–
O=C(O)CN(CCCNC(=O)c1cc(B(O)O)cc([N+](=O)[O-])c1)C(=O)c1cc(B(O)O)cc([N+](=O)[O-])c1 [Example 9, N-(3-(3-borono-5-nitrobenzamido)propyl)-N-(3-borono-5-nitrobenzoyl)glycine]	–	6.5	10.6	–	–	–
O=C(O)CN(CCCCNC(=O)c1cc(B(O)O)cc([N+](=O)[O-])c1)C(=O)c1cc(B(O)O)cc([N+](=O)[O-])c1 [Example 10, N-(4-(3-borono-5-nitrobenzamido)butyl)-N-(3-borono-5-nitrobenzoyl)glycine]	–	99.8	11.5	–	–	–
O=C(O)CN(CCCCCNC(=O)c1cc(B(O)O)cc([N+](=O)[O-])c1)C(=O)c1cc(B(O)O)cc([N+](=O)[O-])c1 [Example 11, N-(5-(3-borono-5-nitrobenzamido)pentyl)-N-(3-borono-5-nitrobenzoyl)glycine]	–	–	24.7	–	–	–
O=C(O)CN(Cc1ccc(CNC(=O)c2cc(B(O)O)cc([N+](=O)[O-])c2)cc1)C(=O)c1cc(B(O)O)cc([N+](=O)[O-])c1 [Example 12, N-(4-((3-borono-5-nitrobenzamido)methyl)benzyl)-N-(3-borono-5-nitrobenzoyl)glycine]	–	–	12.1	–	–	–
O=C(O)CN(Cc1cccc(CNC(=O)c2cc(B(O)O)cc([N+](=O)[O-])c2)c1)C(=O)c1cc(B(O)O)cc([N+](=O)[O-])c1 [Example 13, N-(3-((3-borono-5-nitrobenzamido)methyl)benzyl)-N-(3-borono-5-nitrobenzoyl)glycine]	–	–	17.8	–	–	–
NC(=O)CN(C(=O)c1ccc2c(c1)B(O)OC2)[C@@H]1CCCC[C@H]1NC(=O)c1ccc2c(c1)B(O)OC2 [Example 14, N-(2-amino-2-oxoethyl)-1-hydroxy-N-((1R,2R)-2-(1-hydroxy-1,3-dihydrobenzo[c][1,2]oxaborole-6-carboxamido)cyclohexyl)-1,3-dihydrobenzo[c][1,2]oxaborole-6-carboxamide]	59.8	1.64	5.88	–	–	–
O=C(O)CN(CCCNC(=O)c1ccc(F)c(B(O)O)c1)C(=O)c1ccc(F)c(B(O)O)c1 [Example 15, N-(3-(3-borono-4-fluorobenzamido)propyl)-N-(3-borono-4-fluorobenzoyl)glycine]	51.6	59	4.8	–	–	–
O=C(O)CN(Cc1cccc(CNC(=O)c2ccc(F)c(B(O)O)c2)c1)C(=O)c1ccc(F)c(B(O)O)c1 [Example 17, N-(3-((3-borono-4-fluorobenzamido)methyl)benzyl)-N-(3-borono-4-fluorobenzoyl)glycine]	53.5	88.6	6.5	–	–	–
O=C(O)CN(C(=O)c1ccc(F)c(B(O)O)c1)[C@H]1CCCC[C@H]1NC(=O)c1ccc(F)c(B(O)O)c1 [Example 18, N-((1S,2R)-2-(3-borono-4-fluorobenzamido)cyclohexyl)-N-(3-borono-4-fluorobenzoyl)glycine]	67.5	95.4	6.04	–	–	–
O=C(O)CN(CCCNC(=O)c1ccc(B(O)O)c(F)c1)C(=O)c1ccc(B(O)O)c(F)c1 [Example 19, N-(3-(4-borono-3-fluorobenzamido)propyl)-N-(4-borono-3-fluorobenzoyl)glycine]	31	43	2.87	–	–	–
O=C(O)CN(CCCCCNC(=O)c1ccc(B(O)O)c(F)c1)C(=O)c1ccc(B(O)O)c(F)c1 [Example 20, N-(S-(4-borono-3-fluorobenzamido)pentyl)-N-(4-borono-3-fluorobenzoyl)glycine]	70.3	30.4	5.86	–	–	–
O=C(O)CN(Cc1ccc(CNC(=O)c2ccc(B(O)O)c(F)c2)cc1)C(=O)c1ccc(B(O)O)c(F)c1 [Example 21, N-(4-((4-borono-3-fluorobenzamido)methyl)benzyl)-N-(4-borono-3-fluorobenzoyl)glycine]	–	–	13.5	–	–	–
O=C(O)CN(Cc1cccc(CNC(=O)c2ccc(B(O)O)c(F)c2)c1)C(=O)c1ccc(B(O)O)c(F)c1 [Example 22, N-(3-((4-borono-3-fluorobenzamido)methyl)benzyl)-N-(4-borono-3-fluorobenzoyl)glycine]	97.3	16.1	9.52	–	–	–
O=C(O)CN(Cc1cccc(CNC(=O)c2cc(Br)cc(B(O)O)c2)c1)C(=O)c1cc(Br)cc(B(O)O)c1 [Example 24, N-(3-((3-borono-5-bromobenzamido)methyl)benzyl)-N-(3-borono-5-bromobenzoyl)glycine]	–	93.7	9.36	–	–	–
